Measured values: patent US20250025451A1, “TREATMENT OF CANCER WITH KDM4 INHIBITORS” (Celgene Corporation, priority 2021, published 2025)
Where “and” joins values, the source holds several entries; their conditions need not be identical. Equal values may be shown once. Read-outs that look alike come from different tables or passages of the source.

What was measured:
[1] = system: T002C patient-derived colon cancer organoid model; assay: organoid colony formation assay, T002C; type: cell-based, human
Method: The IC50 values for Compound 1 inhibition of colony formation and viability were determined for the patient-derived colon cancer organoid models: SU60, T002C, SU62, SU34, SU103, T03SC, and SU106, patient-derived pancreatic cancer organoid models PA016SF, PA0143F, T016P, and T028P, and a patient-derived breast cancer organoid model FS5S3.
Colony formation and viability assays were performed in multiwell plates seeded with organoids using an in vitro culture system composed of a Matrigel layer, media containing a defined set of growth factors, and co-culture with Wnt3 A-secreting mouse embryonic fibroblasts. Assays were initiated by adding either DMSO as a negative control, or an inhibitor panobinostatat 100×IC50 concentration as a positive control, or serially diluted Compound 1. The cultures were incubated for 168 or 144 hours after which the number of viable organoids in each test well was assessed respectively using one of two detection methods: CTG or staining with calcein-AM followed by imaging and colony counting. Colony count or viability of cells treated with compound 1 was expressed as a percent of the negative control. Aggregated Percent of Control values were plotted against the corresponding Compound 1 concentration and the absolute IC50 value was determined from a non-linear regression curve as the concentration where inhibition was 50% of the control.

KDM4 = assay: inhibition of H3K9me3 demethylation, TR-FRET LANCE detection; type: biochemical; settings: in the presence of α-KG
Method: Inhibition of […] demethylation was measured at various Compound 1 concentrations in the presence of α-KG using time-resolved fluorescence-based (TR-FRET) LANCE® detection.

[2] = system: COH70 patient-derived triple negative breast cancer xenograft; assay: in vivo efficacy, COH70 patient-derived triple negative breast cancer xenograft model; settings: COH70 TNBC PDX; for % TGI: Day 36; for Median Tumor Volumes Diff.: Day 36 minus Day 1
Method: The therapeutic in vivo efficacy of Compound 1 was evaluated in SU60 colorectal cancer, KYSE-150 esophageal cancer, COH70 triple-negative breast cancer, GXA-3036 gastric adenocarcinoma and OCI-LY19 Diffuse Large B-Cell Non-Hodgkin's Lymphoma xenograft models. In all studies, efficacy was determined based on percent tumor growth inhibition (TGI), differences in mean tumor growth, and statistical assessment of differences in net tumor volume distributions on the day of TGI analysis between control and treated animals. Tolerability was assessed based on differences in mean body weights between control and treated animals over the course of the study.
The in vivo therapeutic efficacy and tolerability of Compound 1, administered orally as the free acid form in a PBS vehicle plus two equivalents of NaOH (final pH 10), was evaluated in a dose range study using the COH70 TNBC PDX model established in female NSG mice. Each mouse was inoculated subcutaneously in the abdomen with 2×10^6 COH70 tumor cells (0.2 ml) suspended in Matrigel. When the average tumor size reached ˜107 mm3, test animals were randomized into 5 groups consisting of 9 mice per group and treatments were initiated. Control mice received PBS (pH 10) vehicle PO QDx36. Treated mice received Compound 1 (dissolved in PBS+2 equivalents of NaOH, final pH 10) PO at 50, 40, 25, or 12.5 mg/kg QDx36. TGI was determined on Day 36 as (1−Difftreated/Diffcontrol)×100. Individual tumors were measured twice weekly in two dimensions using a caliper, and the tumor volumes (TV) in mm3 were calculated using the formula: TV=0.5 (l×w×h), where l, w, and h are the tumor length, width, and height in mm, respectively. Mean tumor volumes±SEM were calculated and plotted versus days of dosing (left panel). Body weights were measured twice weekly. Body weights±SEM were calculated and plotted versus days of dosing (right panel).

[3] = system: colorectal cancer organoid PDX models; assay: culture-based viability inhibition assay, colorectal cancer organoid PDX models; type: cell-based; settings: for Sensitive to Compound 1 (models sensitive/tested): sensitive = IC50<1 μM
Method: A panel of 13 colorectal cancer PDX models and 6 colorectal cancer organoid PDX models were tested for their sensitivity to Compound 1 in culture-based viability inhibition assays. The MSI-H status of the studied colorectal cancer cell lines and their respective mutations of the MMR path genes are shown in FIG. 19.

[4] = MSS (Organoid) colorectal cancer models

CC(C)c1ccc(N(C)c2ccc3c(c2)OCC[C@H]3CNc2cnccc2C(=O)O)cc1 [Compound 1, 3-({[(4R)-7-{methyl[4-(propan-2-yl)phenyl]amino}-3,4-dihydro-2H-1-benzopyran-4-yl]methyl}amino)pyridine-4-carboxylic acid]
IC50 ([1]; Homo sapiens, T002C colorectal carcinoma model): < 0.15 µM | IC50 ([1]; T002C human colorectal carcinoma organoid, 144 hrs, Colony Counts): 0.022 µM | mode of inhibition of H3K9me3 demethylation (KDM4): reversible and competitive inhibition | tolerability (dose-dependent mean body weight changes) ([2]; female NSG mice, 12.5-50 mg/kg PO QD x36): well-tolerated | mean body weight loss ([2]; female NSG mice, PO QD x36, over the course of the study): 6.5% | Median Tumor Volumes Day 36 ([2]; female NSG mice, free acid 12.5 mg/kg PO QD x36): 685 mm^3 | Median Tumor Volumes Day 36 ([2]; female NSG mice, free acid 25 mg/kg PO QD x36): 524 mm^3 | Median Tumor Volumes Day 36 ([2]; female NSG mice, free acid 40 mg/kg PO QD x36): 282 mm^3 | Median Tumor Volumes Day 36 ([2]; female NSG mice, free acid 50 mg/kg PO QD x36): 295 mm^3 | % TGI ([2]; 12.5 mg/kg PO QD x36): 57% | Median Tumor Volumes Diff. ([2]; 12.5 mg/kg PO QD x36): 581 mm^3 | % TGI ([2]; 25 mg/kg PO QD x36): 68% | Median Tumor Volumes Diff. ([2]; 25 mg/kg PO QD x36): 424 mm^3 | % TGI ([2]; 40 mg/kg PO QD x36): 86% | Median Tumor Volumes Diff. ([2]; 40 mg/kg PO QD x36): 184 mm^3 | % TGI ([2]; 50 mg/kg PO QD x36): 86% | Median Tumor Volumes Diff. ([2]; 50 mg/kg PO QD x36): 191 mm^3 | IC50 ([3]; MSI (Organoid) colorectal cancer models, read-out: IC50 (range over sensitive models)): 0.022 to 0.149 µM | Sensitive to Compound 1 (models sensitive/tested) ([3]; MSI (Organoid) colorectal cancer models): 3 out of 3 and 3/3 | Sensitive to Compound 1 (percent of models) [3, 4]: (0%) | IC50 ([3]; MSS (Organoid) colorectal cancer models, read-out: IC50): > 10 µM | Sensitive to Compound 1 (models sensitive/tested) [3, 4]: 0 out of 3 and 0/3
